Test results published in patent US4891360A, “6-amino anthracyclines, process for their preparation and use thereof” (Farmitalia Carlo Erba S.r.l., priority 1986, dated 1990).
Values after ≈ are worked out from the molar mass of the structure shown. Read-outs that look alike come from different tables or passages of the source.

What was measured:
[1] = system: Human Colon Adenocarcinoma Cell Line sensitive to doxorubicin (LoVo); test: In vitro cytotoxicity, colony inhibition test on human colon adenocarcinoma cell line sensitive to doxorubicin (LoVo); format: cell-based; details: read-out: ID50 (dose which gives 50% reduction of cell number in comparison with untreated controls), LoVo
Method: (§1) Compound II (4-demethoxy-6-deoxy-6-aminodaunorubicin) and Compound III (4-demethoxy-6-deoxy-6-aminodoxorubicin) have been tested "in vitro" against Human Colon Adenocarcinoma Cell Line sensitive to doxorubicin (LoVo) and resistant to doxorubicin (LoVo/DX) in comparison with daunorubicin (DNR) and doxorubicin (DX).
(§2) In Vitro cytotoxicity (a) on human colon adenocarcinoma cell
(§3) line sensitive (LoVo) and resistant to doxorubicin (LoVo/DX)
(§4) (a)Colony inhibition test: 4 hours treatment
(§5) (b)dose which gives 50% reduction of cell number in comparison with
(§6) In Vitro cytotoxicity (a) on human colon adenocarcinoma
(§7) cell line sensitive (LoVo) and resistant to doxorubicin
(§8) (LoVo/DX) of 4-demethoxy-6-deoxy-6-amino DX
(§9) (a)Colony inhibition test: -24 hours treatment

[2] = system: Human Colon Adenocarcinoma Cell Line resistant to doxorubicin (LoVo/DX); test: In vitro cytotoxicity, colony inhibition test on human colon adenocarcinoma cell line resistant to doxorubicin (LoVo/DX); format: cell-based; details: read-out: ID50 (dose which gives 50% reduction of cell number in comparison with untreated controls), LoVo/DX
Method: as §1, §2, §3, §4, §5, §6, §7, §8, §9

[3] = Table 1, colony inhibition test, 4 hours treatment
[4] = Table 2, colony inhibition test, 24 hours treatment

CC(=O)[C@]1(O)Cc2c(O)c3c(c(N)c2[C@@H](O[C@H]2C[C@H](N)[C@H](O)[C@H](C)O2)C1)C(=O)c1ccccc1C3=O [Compound II, 4-demethoxy-6-deoxy-6-amino daunorubicin]
IC50 [1, 3]: 0.09 µg/mL (≈ 0.181 µM)
IC50 [2, 3]: 4.4 µg/mL (≈ 8.86 µM)

C[C@@H]1O[C@@H](O[C@H]2C[C@](O)(C(=O)CO)Cc3c(O)c4c(c(N)c32)C(=O)c2ccccc2C4=O)C[C@H](N)[C@@H]1O [Compound III, 4-demethoxy-6-deoxy-6-amino doxorubicin]
IC50 [1, 4]: 0.099 µg/mL (≈ 0.193 µM)
IC50 [2, 4]: 1.15 µg/mL (≈ 2.24 µM)

COc1cccc2c1C(=O)c1c(O)c3c(c(O)c1C2=O)C[C@@](O)(C(C)=O)C[C@@H]3O[C@H]1C[C@H](N)[C@H](O)[C@H](C)O1 [DNR, daunorubicin]
IC50 ([1]; 4 h): 0.042 µg/mL (≈ 0.0796 µM)
IC50 ([2]; 4 h): 2.36 µg/mL (≈ 4.47 µM)

COc1cccc2c1C(=O)c1c(O)c3c(c(O)c1C2=O)C[C@@](O)(C(=O)CO)C[C@@H]3O[C@H]1C[C@H](N)[C@H](O)[C@H](C)O1 [DX, doxorubicin]
IC50 ([1]; 24 h): 0.0266 µg/mL (≈ 0.0489 µM)
IC50 ([2]; 24 h): 0.833 µg/mL (≈ 1.53 µM)
